Measured values: PMC6934184, “Selective DNA-PKcs inhibition extends the therapeutic index of localized radiotherapy and chemotherapy” (The Journal of Clinical Investigation, 2019)

Molecular target: T1, SGK (SGK1) (Homo sapiens, UniProt O00141)
T1 construct: purchased Thermo Fisher Scientific (Life Technologies) SelectScreen
Assay: SelectScreen Z'LYTE
Assay type: biochemical
Outline: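 SelectScreen broad panel; activity (Z'LYTE, Adapta) plus binding formats. ATP: Km app for CSF1R Z'LYTE; 10 for CAMK1 Adapta. Readout = % per kinase.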

T1 sequence (O00141 whole entry): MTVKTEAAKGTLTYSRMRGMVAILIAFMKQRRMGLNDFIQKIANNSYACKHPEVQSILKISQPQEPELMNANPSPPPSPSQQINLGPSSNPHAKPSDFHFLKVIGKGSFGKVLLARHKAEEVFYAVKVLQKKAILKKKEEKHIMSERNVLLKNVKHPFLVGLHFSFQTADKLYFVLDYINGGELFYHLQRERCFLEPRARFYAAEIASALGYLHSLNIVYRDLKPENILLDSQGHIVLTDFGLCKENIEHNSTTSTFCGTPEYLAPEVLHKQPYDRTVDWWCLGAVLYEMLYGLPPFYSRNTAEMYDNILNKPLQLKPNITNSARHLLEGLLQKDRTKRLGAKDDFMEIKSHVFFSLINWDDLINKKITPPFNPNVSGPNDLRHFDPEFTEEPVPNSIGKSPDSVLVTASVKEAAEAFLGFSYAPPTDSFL

CN(C(=O)CN1CCOCC1)c1ccc2sc3c(-c4cccc5c(=O)cc(N6CC7CCC(C6)O7)oc45)cccc3c2c1 [NU5455]
inhibition at 1 µM: 8.5%
